Results on four molecules are retold here after ChEMBL document CHEMBL1201862, “PubChem BioAssay data set” (2004).

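Results reflect a 48-hour exposure of cells in 96-well plates to compound at five concentrations. GI50 marks 50% less growth.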 The source made the active and inactive calls. No stated cut-off is given here; in the data, active = GI50 up to about 1.1 µM and inactive = higher.

Among the test systems are 786-0; A549; CAKI-1; COLO 205; HCT-116; HL-60; HT-29; IGROV-1; KM12; LOX IMVI; M14; Malme-3M; OVCAR-3; OVCAR-5; SF-295; SF-539; SNB-19; SR; UO-31; UACC-62.
Common to all, as to assay: NCI anticancer screen, dose series, 48 h

As to `CC(C)[C@H](CCl)NC(=O)c1cccc(C(=O)N[C@H](CCl)C(C)C)n1` (stereo in doubt), the GI50 in the assay with 786-0, with A549, with CAKI-1, in the assay on COLO 205, with HCT-116 and with HL-60 was > 100 µM (inactive) throughout. In addition, the GI50 in the assay with HT-29, with IGROV-1, with KM12, with LOX IMVI, with M14 and in the assay with Malme-3M was > 100 µM (inactive) in each case. For the same molecule, the GI50 with OVCAR-3, in the assay with OVCAR-5, in the assay with SF-295, in the assay on SF-539, in the assay with SNB-19 and with SR was > 100 µM (inactive) in each case. Also, the GI50 in the assay on UO-31 was > 100 µM (inactive).

For the molecule `CC(C)(C)O/N=C/c1cc(NC(=S)c2ccsc2)ccc1Cl`, the GI50 in the assay with 786-0 was 16.2 µM (inactive); in the assay with A549, 17.5 µM (inactive); in the assay on CAKI-1, 16.6 µM (inactive); with COLO 205, 14.9 µM (inactive); with HCT-116, 11.4 µM (inactive); in the assay on HL-60, 17.2 µM (inactive). The GI50 with HT-29 was 13.3 µM (inactive); in the assay with IGROV-1 it was 16.7 µM (inactive); with KM12 it was 9.89 µM (inactive); with LOX IMVI, 16 µM (inactive); in the assay with M14, 16.7 µM (inactive); in the assay on Malme-3M it was 14.3 µM (inactive). The GI50 was 14.9 µM (inactive) in the assay with OVCAR-3; 17.7 µM (inactive) in the assay with OVCAR-5; 11.6 µM (inactive) with SF-295; 18 µM (inactive) in the assay on SF-539; 3.36 µM (inactive) in the assay with SR; 15.5 µM (inactive) with UACC-62. The GI50 with UO-31 is 12.2 µM (inactive).

For the molecule `CC(=NNC(=S)Nc1ccccc1C)c1cccc(C(C)=NNC(=S)Nc2ccccc2C)n1`, the GI50 with 786-0 was 4.13 µM (inactive); in the assay with A549 it was 24.2 µM (inactive); in the assay with CAKI-1, 42.9 µM (inactive); in the assay with COLO 205, 10.9 µM (inactive); in the assay with HCT-116, 18.4 µM (inactive); in the assay with HL-60, 19.7 µM (inactive). For the same molecule, the GI50 is 39 µM (inactive) in the assay on HT-29; 26.3 µM (inactive) with IGROV-1; 24 µM (inactive) with KM12; 6.9 µM (inactive) in the assay with LOX IMVI; 15.8 µM (inactive) in the assay on M14; 15.5 µM (inactive) with Malme-3M. Further, the GI50 was > 100 µM (inactive) with OVCAR-5; 8.93 µM (inactive) in the assay on SF-295; 6.68 µM (inactive) in the assay on SF-539; > 100 µM (inactive) in the assay on SNB-19; 0.262 µM (active) in the assay on SR; 45.1 µM (inactive) in the assay on UACC-62. Besides, the GI50 in the assay with UO-31 was 45.9 µM (inactive).

`COc1ccc(/C=C/C(=N/NC(=O)N/N=C(/C=C/c2ccc(OC)cc2)C(C)(C)CN2CCCCC2)C(C)(C)CN2CCCCC2)cc1`: the GI50 with 786-0 was 1.59 µM (inactive); in the assay on A549, 1.86 µM (inactive); in the assay with CAKI-1, 1.83 µM (inactive); in the assay on COLO 205, 1.65 µM (inactive); in the assay on HCT-116, 1.33 µM (inactive); with HL-60, 1.5 µM (inactive). Further, the GI50 is 1.58 µM (inactive) in the assay on HT-29; 2.27 µM (inactive) in the assay with IGROV-1; 1.81 µM (inactive) in the assay with KM12; 1.37 µM (inactive) in the assay with LOX IMVI; 1.71 µM (inactive) in the assay on M14; 1.92 µM (inactive) with Malme-3M. For the same molecule, the GI50 in the assay on OVCAR-3 is 1.87 µM (inactive); in the assay with OVCAR-5 it was 2.96 µM (inactive); in the assay with SF-295, 1.87 µM (inactive); with SF-539 it was 2.28 µM (inactive); with SNB-19 it was 2.61 µM (inactive); in the assay with SR, 0.234 µM (active). The GI50 in the assay on UO-31 was 1.58 µM (inactive).
